How the values were obtained:
Assay type in all cases: in vivo
[1] = test system: corn (Zea mays); test: Test A postemergence, corn; settings: Postemergence
Method in brief: (§1)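 Seeds are sown in loam mixed with sand and sprayed on the soil surface right after planting for the preemergence test. Postemergence pots are sprayed once seedlings reach 2 to 10 cm at the one- to two-leaf stage. The same surfactant-containing, non-phytotoxic solvent formulation serves both.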

[2] = test system: barnyardgrass (Echinochloa crus-galli); test: Test A preemergence, barnyardgrass; settings: Preemergence; for Plant response rating, Barnyardgrass: 0 to 100 scale (0 no effect, 100 complete control); for Barnyardgrass plant response rating: 125 g ai/ha, visual injury on 0 to 100 scale (0 no effect, 100 complete control), approximately 10 days
Method in brief: as §1

[3] = test system: Foxtail, Giant (giant foxtail, Setaria faberi); test: Test A postemergence, Foxtail, Giant; settings: Postemergence
Method in brief: as §1

[4] = test system: pigweed (Amaranthus retroflexus); test: Test A postemergence, pigweed; settings: Postemergence
Method in brief: as §1

[5] = test system: kochia (Bassia scoparia); test: Test A preemergence, kochia; settings: Preemergence; for Plant response rating, Kochia: 0 to 100 scale (0 no effect, 100 complete control); for Kochia plant response rating: 125 g ai/ha, visual injury on 0 to 100 scale (0 no effect, 100 complete control), approximately 10 days
Method in brief: as §1

[6] = test system: pigweed (Amaranthus retroflexus); test: Test A preemergence, pigweed; settings: for Plant response rating, Pigweed: 0 to 100 scale (0 no effect, 100 complete control); for Pigweed plant response rating: 125 g ai/ha, visual injury on 0 to 100 scale (0 no effect, 100 complete control), approximately 10 days
Method in brief: as §1

[7] = test system: ragweed (common ragweed, Ambrosia artemisiifolia); test: Test A postemergence, ragweed; settings: Postemergence
Method in brief: as §1

[8] = test system: galium (catchweed bedstraw, Galium aparine); test: Test A postemergence, galium; settings: Postemergence
Method in brief: as §1

[9] = test system: wheat (Triticum aestivum); test: Test A postemergence, wheat; settings: Postemergence
Method in brief: as §1

[10] = test system: blackgrass (Alopecurus myosuroides); test: Test A postemergence, blackgrass; settings: Postemergence, 0 to 100 scale (0 no effect, 100 complete control)
Method in brief: as §1

[11] = test system: kochia (Bassia scoparia); test: Test A postemergence, kochia; settings: Postemergence
Method in brief: as §1

[12] = test system: Ryegrass, Italian (Italian ryegrass, Lolium multiflorum); test: Test A preemergence, Ryegrass, Italian; settings: Preemergence; for Plant response rating, Ryegrass, Italian: 0 to 100 scale (0 no effect, 100 complete control); for Ryegrass, Italian plant response rating: 125 g ai/ha, visual injury on 0 to 100 scale (0 no effect, 100 complete control), approximately 10 days
Method in brief: as §1

[13] = test system: ragweed (common ragweed, Ambrosia artemisiifolia); test: Test A preemergence, ragweed; settings: Preemergence; for Plant response rating, Ragweed: 0 to 100 scale (0 no effect, 100 complete control); for Ragweed plant response rating: 125 g ai/ha, visual injury on 0 to 100 scale (0 no effect, 100 complete control), approximately 10 days
Method in brief: as §1

[14] = test system: Foxtail, Giant (giant foxtail, Setaria faberi); test: Test A preemergence, Foxtail, Giant; settings: Preemergence; for Plant response rating, Foxtail, Giant: 0 to 100 scale (0 no effect, 100 complete control); for Foxtail, Giant plant response rating: 125 g ai/ha, visual injury on 0 to 100 scale (0 no effect, 100 complete control), approximately 10 days
Method in brief: as §1

[15] = test system: Ryegrass, Italian (Italian ryegrass, Lolium multiflorum); test: Test A postemergence, Ryegrass, Italian; settings: Postemergence
Method in brief: as §1

[16] = test system: barnyardgrass (Echinochloa crus-galli); test: Test A postemergence, barnyardgrass; settings: Postemergence, 0 to 100 scale (0 no effect, 100 complete control)
Method in brief: as §1

[17] = 31 g ai/ha, visual injury on 0 to 100 scale (0 no effect, 100 complete control), approx. 10 days
[18] = 125 g ai/ha, visual injury approx. 10 days, 0 to 100 scale (0 no effect, 100 complete control)
[19] = 31 g ai/ha, visual injury, approx. 10 days
[20] = 125 g ai/ha, visual injury approx. 10 days
[21] = 500 g ai/ha, visual injury vs untreated controls after approx. 10 days, 0 to 100 scale (0 no effect, 100 complete control)
[22] = 500 g ai/ha, visual injury vs untreated controls after approx. 10 days

With `Cc1cc(C)c(N(S(=O)(=O)C(F)(F)F)S(=O)(=O)C(F)(F)F)cc1C(=O)N1CCCC(F)C1` (stereo not drawn) [Compound 118] the “Plant response rating, Corn” value [1, 17] was 0, the “Plant response rating, Corn” value [1, 18] was 0 and the “Plant response rating, Barnyardgrass” value [2, 19] was 0. For the same compound, the “Barnyardgrass plant response rating” value [2] was 90, the “Plant response rating, Foxtail, Giant” value [3, 17] was 0 and the “Plant response rating, Foxtail, Giant” value [3, 18] was 30. For the same compound, the “Plant response rating, Pigweed” value [4, 17] was 30, the “Plant response rating, Pigweed” value [4, 18] was 90 and the “Plant response rating, Kochia” value [5, 19] was 0. For the same compound, the “Kochia plant response rating” value [5] was 0, the “Plant response rating, Pigweed” value [6, 19] was 100 and the “Pigweed plant response rating” value [6] was 100. For the same compound, the “Plant response rating, Ragweed” value [7, 17] was 20, the “Plant response rating, Ragweed” value [7, 18] was 80 and the “Plant response rating, Galium” value [8, 17] was 40. The “Plant response rating, Galium” value [8, 18] was 90, the “Plant response rating, Wheat” value [9, 17] was 0 and the “Plant response rating, Wheat” value [9, 18] was 40. For the same compound, the “Plant response rating, Blackgrass” value ([10]; 31 g ai/ha) was 20, the “Plant response rating, Blackgrass” value [10, 20] was 10 and the “Plant response rating, Kochia” value [11, 17] was 10. For the same compound, the “Plant response rating, Kochia” value [11, 18] was 40, the “Plant response rating, Ryegrass, Italian” value [12, 19] was 40 and the “Ryegrass, Italian plant response rating” value [12] was 80. The “Plant response rating, Ragweed” value [13, 19] was 50, the “Ragweed plant response rating” value [13] was 100 and the “Plant response rating, Foxtail, Giant” value [14, 19] was 80. For the same compound, the “Foxtail, Giant plant response rating” value [14] was 100, the “Plant response rating, Ryegrass, Italian” value [15, 17] was 0 and the “Plant response rating, Barnyardgrass” value ([16]; 31 g ai/ha) was 10. For the same compound, the “Plant response rating, Barnyardgrass” value [16, 20] was 90.

With `COC1CCCN(C(=O)c2cc(N(S(=O)(=O)C(F)(F)F)S(=O)(=O)C(F)(F)F)c(C)cc2C)C1` (stereo not drawn) [Compound 119] the “Plant response rating, Corn” value [1, 18] was 10, the “Corn plant response rating” value [1, 21] was 30 and the “Barnyardgrass plant response rating” value [2] was 100. For the same compound, the “Plant response rating, Barnyardgrass” value ([2]; 500 g ai/ha) was 100, the “Plant response rating, Foxtail, Giant” value [3, 18] was 30 and the “Foxtail, Giant plant response rating” value [3, 21] was 80. The “Plant response rating, Pigweed” value [4, 18] was 40, the “Pigweed plant response rating” value [4, 21] was 70 and the “Kochia plant response rating” value [5] was 50. The “Plant response rating, Kochia” value ([5]; 500 g ai/ha) was 100, the “Pigweed plant response rating” value [6] was 100 and the “Plant response rating, Pigweed” value ([6]; 500 g ai/ha) was 100. The “Plant response rating, Ragweed” value [7, 18] was 70, the “Ragweed plant response rating” value [7, 21] was 90 and the “Plant response rating, Galium” value [8, 18] was 80. The “Galium plant response rating” value [8, 21] was 90, the “Plant response rating, Wheat” value [9, 18] was 10 and the “Wheat plant response rating” value [9, 21] was 70. For the same compound, the “Plant response rating, Blackgrass” value [10, 20] was 0, the “Blackgrass plant response rating” value [10, 22] was 40 and the “Plant response rating, Kochia” value [11, 18] was 20. For the same compound, the “Kochia plant response rating” value [11, 21] was 60, the “Ryegrass, Italian plant response rating” value [12] was 80 and the “Plant response rating, Ryegrass, Italian” value ([12]; 500 g ai/ha) was 100. The “Ragweed plant response rating” value [13] was 80, the “Plant response rating, Ragweed” value ([13]; 500 g ai/ha) was 100 and the “Foxtail, Giant plant response rating” value [14] was 100. For the same compound, the “Plant response rating, Foxtail, Giant” value ([14]; 500 g ai/ha) was 100, the “Plant response rating, Ryegrass, Italian” value [15, 18] was 20 and the “Ryegrass, Italian plant response rating” value [15, 21] was 90. The “Plant response rating, Barnyardgrass” value [16, 20] was 40 and the “Barnyardgrass plant response rating” value [16, 22] was 90.

Reference: patent US20230278972A1, “SUBSTITUTED HALOALKYL SULFONANILIDE HERBICIDES” (FMC Corporation, priority 2020, published 2023)
